Results: patent EP0643699B1, “6-(2-HYDROXYETHYLAMINOALKYL)-5,11-DIOXO-5,6-DIHYDRO-11H- INDENO[1,2-C]ISOQUINOLINES AND THEIR USE AS ANTINEOPLASTIC AGENTS” (priority 1991, dated 1993)
Read-outs that look alike come from different tables or passages of the source. Marks after values point to notes of the source that are not given here.

Assays:
Yoshida ascites cells = assay: Cytotoxicity: incorporation of [3H]thymidine and [14C]uridine into trichloroacetic acid-insoluble fraction of cells; format: cell-based, Wistar rats
Description: The degree of influence on the incorporation of [^3H]thymidine and [^14C]uridine into the fraction of Yoshida ascites cells insoluble in trichloroacetic acid serves as the measure of cytotoxicity.

Sa37 sarcoma = assay: Antitumour activity in S37 ascites sarcoma bearing mice (tumour weight, total ascitocrit, survival); format: in vivo, mice H; settings: for mean value of the tumour weight in comparison with the untreated control group / mean value of tumour cell fraction in ascites fluid (total ascitocrit) in comparison with the untreated control group: eight daily doses; for Survival time (T/C, %) / Total ascitocrit (T/C, %) / Tumour weight (T/C, %): administered in four days
Description: (§1) The antineoplastic activity of the compounds of the invention has been investigated testing the compounds of the chemical group "in vivo" against experimental rodent tumors such as the solid form of Ehrlich tumour (STE, originally mammary adenocarcinoma), tumor HK (also transplantable originally mammary adenocarcinoma), Krebs' ascites tumour (Kr2), S37 ascites sarcoma, Nemeth-Keller lymphoma (NK), all maintained in mice H, Gardner lymphosarcoma (LsG, maintained in mice C3H), P388 and/or L1210 leukemia (maintained in DBA2 mice), B16 metastasizing melanocarcinoma (maintained in C57B1/6 mice) and Yoshida ascites reticulosarcoma (Y, maintained in Wistar rats) in experiments according to Jelinek, V. [Neoplasma 12, 469 (1965); ibid 7, 146 (1960)] and in "in vitro" experiments using radioactive precursors of nucleic acids and proteins according to Miko, M. et al. [Cancer Res 39, 4242 (1979); Neoplasma 26, 449 (1979); ibid 16, 161 (1969)] with minor modifications [Mattern, J.: Studies on the Drug Sensitivity of Short Term Cultured Tumour Cell Suspensions. In "Human Tumours in Short Term Culture" (Dendy, P.P. ed.), p.301, Academic Press 1976]. The Cox's proportional-hazards model was used for survival evaluation and optimal dose calculation according to Carter, V.H. et al. [cf Cancer Res. 42, 2963 (1982)].
Eighty female mice H weighing approximately 20 g were divided into four groups: one control group and three experimental groups of 20 animal each. A lethal dose of the Sa37 sarcoma ascitic fluid was implanted intraperitoneally to all the animals. The animals of test groups were treated using the compound suspended in water. The suspension contained the substance in such a concentration that dose 0.6, 0.4 and/or 0.2ml of the suspension p.o. was equal to dose 240, 160 and/or 80 mg/kg p.o., respectively. The drug was administered to the experimental animals once, a day after tumour transplantation. On the tenth day after the tumour transplantation, half of the animals in each group were killed by ether anaesthesia, ascites were emptied after laparotomia and the tumour weight was assessed in all animals from the weight difference before and after laparotomia and ascites removing. In ascites fluid the volume of tumour cell fraction was determined. The remaining animals were left to monitor the time of death and survival time was followed. […] It was also observed that the treated animals survived longer than untreated control animals. […] The results of the experiment are summarized in the following table: Antitumour activity of 6-[2-(2-hydroxyethyl)aminoethyl]5,11-dioxo-5,6-dihydro-11H-indeno[1,2-c]isoquinoline (the substance I, X=2) in S37 sarcoma bearing mice.
In an analogous experiment carried out on the animals with implanted Sa37 sarcoma the substance I (X=2) was administered in seven daily doses, and the substance I (X=3) in four days. The results of the experiment are summarized in the following table: Antitumour activity of 6-[2-(2-hydroxyethyl)aminoethyl]5,11-dioxo-5,6-dihydro-11H-indeno[1,2-c]isoquinoline (the substance I, X=2) and 6-[3-(2-hydroxyethyl)aminopropyl]5,11-dioxo-5,6-dihydro-11H-indeno[1,2-c]isoquinoline (the substance I, X=3) in S37 bearing mice.
In an experiment carried out on the animals with implanted Sa37 sarcoma the substance I (X=0) was administered in eight daily doses (analogously as in example 6).

Ehrlich tumour = assay: Antitumour activity against solid form of Ehrlich tumour in mice (tumour weight, survival); format: in vivo, mice H
Description: as §1
Sixty female mice H weighing approximately 20 g were divided into three groups: one control group and two experimental groups of 20 animal each. A lethal dose of the 40 Ehrlich tumour homogenate was implanted subcutaneously to all the animals. The animals of test groups were treated using the compounds suspended in water. […] On the fourteenth day after the tumour transplantation, half of the animals in each group were killed by ether anaesthesia, tumours were removed and weighed. The remaining animals were left to monitor the time of death and survival time was followed. […] It was also observed that the treated animals survived longer than untreated control animals.

leukemia P388 = assay: Survival of mice with leukemia P388 after intravenous administration; format: in vivo; settings: mice DBA2 with leukemia P388
Description: as §1, with “(1982)]. […]” for “(1982)].”

COc1cccc2c1C(=O)c1c(O)c3c(c(O)c1C2=O)C[C@@](O)(C(=O)CO)C[C@@H]3O[C@H]1C[C@H](N)[C@H](O)[C@H](C)O1 [DOXORUBICIN]
IC50 (Yoshida ascites cells; Rattus norvegicus, YOSHIDA, Precursor [6-3H]Thymidine): 16 µM | IC50 (Yoshida ascites cells; Rattus norvegicus, YOSHIDA, Precursor [Uracil-U-14C]uridine): 8 µM

O=C1c2ccccc2-c2c1c1ccccc1c(=O)n2NCCO [I (X=0), 6-[(2-hydroxyethyl)amino]-5,11-dioxo-5,6-dihydro-11H-indeno[1,2-c]isoquinoline]
mean value of the tumour weight in comparison with the untreated control group (Sa37 sarcoma; 20 mg/kg s.c.): 68% | mean value of tumour cell fraction in ascites fluid (total ascitocrit) in comparison with the untreated control group (Sa37 sarcoma; 20 mg/kg s.c.): 71% | mean value of the tumour weight in comparison with the untreated control group (Sa37 sarcoma; 50 mg/kg p.o.): 60% | mean value of tumour cell fraction in ascites fluid (total ascitocrit) in comparison with the untreated control group (Sa37 sarcoma; 50 mg/kg p.o.): 68% | mean tumour weight lowered by (Ehrlich tumour; 50 mg/kg p.o. x 8, starting on the first day after tumour transplantation): 13% | Mean survival time in comparison with the untreated control group (Ehrlich tumour; eight daily doses of 25 mg/kg p.o.): 115% | mean tumour weight in the treated animals in comparison with the untreated control group (Ehrlich tumour; single dose of 100 mg/kg p.o.): 72%

Cl.O=C1c2ccccc2-c2c1c1ccccc1c(=O)n2CCNCCO [I (X=2) Hydrochloride, 6-[2-(2-hydroxyethyl)aminoethyl]-5,11-dioxo-5,6-dihydro-11H-indeno[1,2-c]isoquinoline hydrochloride]
survival (leukemia P388): highly significant increase of survival | IC50 (Yoshida ascites cells; Rattus norvegicus, YOSHIDA, Precursor [6-3H]Thymidine, read-out: IC 50): 5 µM | IC50 (Yoshida ascites cells; Rattus norvegicus, YOSHIDA, Precursor [Uracil-U-14C]uridine, read-out: IC 50): 7 µM

O=C1c2ccccc2-c2c1c1ccccc1c(=O)n2CCCNCCO [I (X=3), 6-[3-(2-hydroxyethyl)aminopropyl]-5,11-dioxo-5,6-dihydro-11H-indeno[1,2-c]isoquinoline]
Survival time (T/C, %) (Sa37 sarcoma; 10 mg/kg p.o.): 119% | Total ascitocrit (T/C, %) (Sa37 sarcoma; 10 mg/kg p.o.): 80^a) % | Tumour weight (T/C, %) (Sa37 sarcoma; 10 mg/kg p.o.): 70^b) % | Survival time (T/C, %) (Sa37 sarcoma; 20 mg/kg p.o.): 99% | Total ascitocrit (T/C, %) (Sa37 sarcoma; 20 mg/kg p.o.): 62^c) % | Tumour weight (T/C, %) (Sa37 sarcoma; 20 mg/kg p.o.): 56^c) % | Total ascitocrit (T/C, %) (Sa37 sarcoma; 30 mg/kg p.o.): 43^b) % | Tumour weight (T/C, %) (Sa37 sarcoma; 30 mg/kg p.o.): 35^b) % | Survival time (T/C, %) (Sa37 sarcoma; 30 mg/kg p.o., tox - toxic dose): tox

MITOXANTRON
IC50 (Yoshida ascites cells; Precursor [6-3H]Thymidine, read-out: IC 50): 25 µM | IC50 (Yoshida ascites cells; Precursor [Uracil-U-14C]uridine, read-out: IC 50): 23 µM
